What was measured:
S. aureus = assay: Membrane permeabilization by SYTOX green assay; assay type: cell-based, Staphylococcus aureus; conditions: S. aureus 1 × 10^6 CFU/mL in PBS 1X; 90 µL bacteria, 5 µL peptide at 200 µM, 5 µL SYTOX Green at 100 µM; 30 cycles of one minute at 30 °C; triplicate
Description: (§1) To verify the effect of peptides on cell membrane integrity, a SYTOX green uptake assay was used, as previously described. Briefly, E coli and S. aureus cultures in exponential phase of growth were centrifuged at 2000× g for 5 min and washed with PBS 1X to prepare a solution at a concentration of 1 × 10^6 CFU/mL in PBS 1X. Then, in 100 μL qPCR tubes, 90 µL of the bacterial solution, 5 µL of peptide at 200 µM and 5 µL of SYTOX Green dye at 100 µM were added. The q-PCR tubes were placed in an Applied Biosystems StepOnePlus™ Real-Time PCR Systems thermocycler, programmed with 30 cycles for one minute at 30 °C, using the Syber green filter, recording the fluorescence data at the end of each cycle. Each assay was performed in triplicate.

E coli = assay: Membrane permeabilization by SYTOX green assay; assay type: cell-based, Escherichia coli; conditions: E. coli 1 × 10^6 CFU/mL in PBS 1X; 90 µL bacteria, 5 µL peptide at 200 µM, 5 µL SYTOX Green at 100 µM; 30 cycles of one minute at 30 °C; triplicate
Description: as §1

[1] = test system: blood samples obtained from a healthy individual; assay type: cell-based
Description: The hemolytic activity of the peptides was obtained, according to a previously described procedure. Briefly, blood samples obtained from a healthy individual were centrifuged at 2000 g for 10 min at 4 °C and then washed with PBS 1X three times. The supernatant was diluted with PBS 1X until reaching a concentration of 6 × 10^8 cells/mL. Assays were performed in duplicate with the peptides at concentrations of 5 and 50 µM, including AMP from Bothrops asper. Triton X-100 (Sigma Aldrich) at 0.5% was used as positive control and PBS 1X as negative control. The assay is performed by mixing 65 µL of the cell suspension with 65 µL of each peptide at the indicated concentrations, and 65 µL of each control, incubating at 37 °C for 1 h. The samples are centrifuged at 3000 g for 5 min; 80 µL of supernatant is taken and placed in a 96-well plate together with 80 µL of milliQ water to finally measure its absorbance at 540 nm.
Hemolysis is calculated according to Equation (1). (1) %Hemolysis=[…]

Row | Substance | SYTOX green fluorescence (membrane permeabilization) (S. aureus) | SYTOX green fluorescence (membrane permeabilization) (E coli) | Hemolytic activity [1]
1 | KKWRWWLKALAKK | high fluorescence | high fluorescence | –
2 | triton X-100 | – | – | hemolysis was only observed

From PMC9788509, “Arginine Homopeptide of 11 Residues as a Model of Cell-Penetrating Peptides in the Interaction with Bacterial Membranes” (Membranes, 2022)
